Patent US8198302B2 (OXiGENE, Inc., priority 2004, dated 2012)
Blank lines part the entries; values can stand above or below the compound they belong to.

Assays:
tumor xenografts = assay: Evaluation of tumor xenografts treated with CA1P; format: in vivo
Excerpt: It is expected that in the highly oxygenated regions of the tumor, such as the tumor rim, that are resistant to tumor blood shutdown, CA1 is readily oxidized to its corresponding quinone, and is able to render a single agent response due to this second mechanism of action.

[1] = system: murine adenocarcinoma CaNT; assay: Functional vascular volume of tumor vessels (Hoechst 333342); format: in vivo, mice; settings: 1 mg/kg i.p. (lowest dose), 24 hours
Method: The effect of CA1P on tumor blood flow was evaluated by quantification of the functional volume of tumor vessels in treated murine tumors using a procedure previously described in detail and incorporated by reference herein (Smith K A, Br. J. Cancer, 57:247-253, 1988). The murine adenocarcinoma CaNT was grown subcutaneously on the back of 12- to 16-week old CBA/Gy fTO mice. Tumors were initiated by the injection of 0.05 ml of a crude tumor cell suspension prepared from a donor mouse. Animals were selected for treatment after 3 or 4 weeks, when tumors had reached a geometric mean diameter of 5 to 6.5 mm. CA1P and CA4P were dissolved in 0.9% saline at various concentrations and injected intraperitoneally into tumor bearing mice. Each treatment group consisted of between five and nine mice. A control treatment group was injected with 0.9% saline. At 24 hours post-injection, each mouse was injected intravenously with a 10 mg/kg dose of the fluorescent DNA-binding dye Hoechst 333342 and sacrificed 1 minute later. Tumors were immediately excised and bisected. Frozen tumor sections were cut at three levels and viewed under UV excitation where the fluorescent staining of perivascular cells identified perfused vessels. Vascular volumes were quantified based on a random point scoring system previously described and incorporated by reference herein (Chalkley H W, J. Natl Cancer Institute, 4: 47-53, 1943). All estimates were based on counting 100 fields from sections cut at each of the 3 different levels and the calculated vascular volumes were expressed as a percentage of the mean value for control tumors.

tumor cells = assay: Tumor cell cytotoxicity, MTT assay; format: cell-based
Method: Exponentially growing tumor cells were treated with the following compounds for 24 hours. Insoluble compounds were formulated in a small amount (0.3%) of DMSO for biological evaluation. Cell viability was determined by the calorimetric MTT assay using 3(4,5-dimethylthiazol-2-yl)-2,5-diphenyl-2H-tetrazolium bromide according to well-established procedures (see Berridge, et al. (1996) for a general protocol of this type of assay).

MHEC-5T tumors = assay: Reduction in tumor blood flow / functional tumor vessels (fluorescent beads); format: in vivo, mice; settings: for reduction in tumor blood flow: 24 hr post-drug
Method: (§1) Catechols were dissolved in 50% DMSO (2 mg/kg) prior to intravenous (iv) administration (i.v.) to tumor-bearing mice. MHEC-5T tumors were established by subcutaneous injection of 0.5×10^6 cultured MHEC5-T cells (German Collection of Microorganisms and Cell Culture, Braunschweig, Germany) into the right flank of Fox Chase CB-17 severe combined immunodeficient (SCID) mice. Tumor grafts grew palpable within one week and reached the limited size (15×15 mm) within 10 days. Tumor bearing mice were injected intraperitoneally with saline control or various dosages of CA1P or CA4P after the transplanted tumor reached a size of 300 mm^3 (a size without development of necrosis). Twenty-four hours later they were injected with 0.25 ml of fluorescent FluoSphere beads (0.1 μm beads conjugated with blue fluorescent tag (F-8789, Molecular Probes, Eugene, Oreg.) and diluted 1:6 in physiological saline) in the tail vein, and sacrificed after 3 minutes. Tumors were then excised for cryosections. Cryosections of 8 μm thickness were directly examined under a fluorescent microscope. Functional blood vessels were indicated by blue fluorescence from injected microbeads. For quantification, three sections from three tumors treated in each group were examined and in each section, more than 70% of the area was automatically recorded with a microscopic digital camera at ×10 magnification. A computer program named Stage Pro (Media Cybernetics, Md.) was used to control the picture recording. Image analysis was performed with Image Plus software (Media Cybernetics, Md.). The results were expressed as vessel area per mm^2 in percentage of the control in Table 2.
as §1, with “The effect of CA1P on tumor blood flow was evaluated by quantifying the number of functional tumor vessels” for “Catechols were dissolved”, “treated murine tumors.” for “50% DMSO (2 mg/kg) prior to intravenous (iv) administration (i.v.) to tumor-bearing mice.”, “as in Example 4c.” for “by subcutaneous injection of 0.5×10^6 cultured MHEC5-T cells (German Collection of Microorganisms and Cell Culture, Braunschweig, Germany) into the right flank of Fox Chase CB-17 severe combined immunodeficient (SCID) mice. Tumor grafts grew palpable within one week and reached the limited size (15×15 mm) within 10 days.”, “MD)” for “Md.)”, “MD).” for “Md.).”, “control.” for “control in Table 2.”

[2] = system: murine adenocarcinoma CaNT; assay: Tumor growth control in CaNT murine tumor model; format: in vivo, mice; settings: single doses of 100, 200, and 400 mg/kg i.p., FIG. 5
Method: The murine adenocarcinoma CaNT was grown subcutaneously on the back of 12- to 16-week old CBA/Gy fTO mice. Tumors were initiated by the injection of 0.05 ml of a crude tumor cell suspension prepared from a donor mouse. Animals were selected for treatment after 3 or 4 weeks, when tumors had reached a geometric mean diameter of 5 to 6.5 mm. CA1P and CA4P were dissolved in 0.9% saline at various concentrations and injected intraperitoneally into tumor bearing mice. Each treatment group consisted of between five and nine mice. A control treatment group was injected with 0.9% saline.

[3] = Reaction of ortho-quinone with glutathione and ascorbate (stopped-flow, HPLC); format: physicochemical; settings: stopped-flow rapid mixing, FIG. 1A
Excerpt: The formation of each quinone was examined by reacting its corresponding catechol with excess FeCl3/H2SO4 and monitoring the reaction by HPLC. The identity of each quinone was confirmed by HPLC-MS (mass 330, λmax 312, 422 nm).

[4] = Stability of quinone product (TLC and NMR); format: physicochemical; settings: in D7 DMF, following the initiation of the reaction
Method: To a solution of Combretastatin A-4 (0.032 g, 0.100 mmol; OXiGENE, Inc.) was added Iodoxybenzoic acid (0.028 g, 0.099 mmol) in D7 DMF (4 ml) with stirring by vortex for ½ hr. Completion of the reaction was indicated by the disappearance of the initial yellowish slurry and the appearance of a clear solution of a deep red color. ^1H-NMR was performed immediately as the quinone product was highly unstable and degraded within a ½ hr following the initiation of the reaction, as indicated by TLC and NMR.

[5] = Recovery of CA1 from plasma; format: in vitro ADME; settings: in the presence of ascorbic acid in the extraction mixture
Excerpt: In blood, the ortho catechol CA1 is susceptible to oxidation. […] The recovery of CA1 was resolved by incorporation of ascorbic acid as an antioxidant in the extraction mixture. In the presence of ascorbic acid the recovery of CA1 from plasma was increased to approximately 90%.

SMILES: COc1cc(/C=C\c2ccc(OC)c(OP(=O)(O)O)c2OP(=O)(O)O)cc(OC)c1OC [CA1P, Combretastatin A-1 diphosphate]
tumor cell destruction by location (tumor xenografts): not only destroyed centrally located tumor cells but also cells located at the periphery of the tumor | reduction of the percentage of functional vasculature in the tumor [1]: over 50% | antiproliferative activity against tumor cells in vitro (tumor cells; in comparison to CA4P): inferior | ED50 (vascular effect) (MHEC-5T tumors; functional vessel number per mm^2, i.p., 24 hr, MHEC-5T tumors): 3 mg/kg | blood flow in the peripheral region of tumors (MHEC-5T tumors; periphery = rim of width 10% of the tumor diameter): reduced the blood flow in the peripheral region as well | reduction in tumor blood flow (MHEC-5T tumors; single i.p. injection 3 mg/kg, MHEC-5T tumors): 50% | reduction in tumor blood flow (MHEC-5T tumors; single i.p. injection 6 mg/kg, MHEC-5T tumors): 74% | reduction in tumor blood flow (MHEC-5T tumors; single i.p. injection 50 mg/kg, MHEC-5T tumors): 90% | blood flow in the central region of tumors (MHEC-5T tumors; spatial distribution of blood vessel shutdown): blood flow reduction | effect on tumor growth [2]: significant tumor growth delay

SMILES: COC1=CC=C(/C=C\c2cc(OC)c(OC)c(OC)c2)C(=O)C1=O [CA-1 Ortho-Quinone]
reaction with glutathione and ascorbate [3]: react rapidly | time to degradation of quinone product [4]: ½

recovery [5]: ~90%
SMILES: COc1ccc(/C=C\c2cc(OC)c(OC)c(OC)c2)c(O)c1O [CA1, Combretastatin A-1]
IC50 (tumor cells; tumor cells treated for 24 hours): 0.0046 µM | Blood Flow at 10 mg/kg (% vessel area of control) (MHEC-5T tumors; 10 mg/kg, MHEC-5T tumor-bearing SCID mice, 24 hours after dosing): 30 % vessel area of control
